Assay results as given in patent publication US11492325B2, “Compounds as inhibitors of sodium channels” (Human BioMolecular Research Institute, priority 2016, dated 2022).
Counter-ions that a name gives are not always drawn. Like-named read-outs stand apart in the source and are kept apart here.

Assays:
[1] = biological target: hERG potassium channel (IKr) (Homo sapiens, UniProt Q12809); assay: Automated patch clamp, hERG (IKr) expressed in CHO cells; details: for IC50: hERG (IKr) IC50, CHO cells
Chain of hERG potassium channel (IKr) (Q12809 whole entry): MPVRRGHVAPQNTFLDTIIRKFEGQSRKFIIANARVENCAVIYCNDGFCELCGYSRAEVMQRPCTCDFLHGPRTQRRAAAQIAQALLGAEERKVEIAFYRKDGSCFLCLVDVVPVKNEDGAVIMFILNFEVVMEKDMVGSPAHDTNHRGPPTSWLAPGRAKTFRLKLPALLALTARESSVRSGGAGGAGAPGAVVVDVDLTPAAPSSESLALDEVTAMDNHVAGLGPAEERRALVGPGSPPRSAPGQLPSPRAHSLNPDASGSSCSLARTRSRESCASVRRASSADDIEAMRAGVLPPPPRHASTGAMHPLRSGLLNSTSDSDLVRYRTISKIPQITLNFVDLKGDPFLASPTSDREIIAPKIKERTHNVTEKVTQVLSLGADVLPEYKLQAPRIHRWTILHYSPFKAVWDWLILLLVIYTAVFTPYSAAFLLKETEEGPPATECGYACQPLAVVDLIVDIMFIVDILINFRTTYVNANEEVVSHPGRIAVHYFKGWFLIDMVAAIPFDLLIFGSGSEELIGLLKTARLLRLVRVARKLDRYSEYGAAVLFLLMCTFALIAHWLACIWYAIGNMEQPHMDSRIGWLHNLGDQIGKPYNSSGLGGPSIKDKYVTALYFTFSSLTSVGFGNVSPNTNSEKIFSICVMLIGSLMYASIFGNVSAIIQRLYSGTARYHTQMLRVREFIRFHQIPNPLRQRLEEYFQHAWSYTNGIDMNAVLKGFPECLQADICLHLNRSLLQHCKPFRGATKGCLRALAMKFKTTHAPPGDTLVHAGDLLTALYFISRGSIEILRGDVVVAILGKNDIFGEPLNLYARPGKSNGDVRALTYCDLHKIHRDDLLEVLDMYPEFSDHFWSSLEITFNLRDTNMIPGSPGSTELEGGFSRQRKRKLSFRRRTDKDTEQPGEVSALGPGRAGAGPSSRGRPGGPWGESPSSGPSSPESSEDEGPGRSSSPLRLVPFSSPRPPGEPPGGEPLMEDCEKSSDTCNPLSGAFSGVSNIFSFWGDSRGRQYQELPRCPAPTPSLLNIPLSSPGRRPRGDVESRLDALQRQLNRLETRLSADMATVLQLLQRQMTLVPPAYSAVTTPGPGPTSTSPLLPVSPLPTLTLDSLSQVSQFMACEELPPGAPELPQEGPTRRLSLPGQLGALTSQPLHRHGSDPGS

[2] = tested on: cardiomyocytes derived from hiPSCs from a LQTS3 patient; assay: cells; details: Homo sapiens, Cardiomyocyte
[3] = biological target: Nav1.5 sodium channel, peak current (INaP) (Homo sapiens, UniProt Q14524, form not given); assay: in vitro; details: Peak Na+ (INaP) IC50
Experimental: (§1) This provided data to investigate the physiology and action of target compounds on individual ion channels. The assay used standardized protocols for culturing and conducting conventional whole cell recording that have been previously developed for both current and voltage-clamp to characterize action potentials using transfected cells. Briefly, the Nav1.5 sodium channel was transfected into HEK293 cells. […] Briefly, cells were plated on 0.1% gelatin-coated 35-mm plastic Petri dishes. […] Data was reported as IC50 values±STD (Table 1).

[4] = tested on: normal human induced pluripotent stem cell (hiPSC) cardiomyocyte; details: for WT-Fold Prolongation: APD
[5] = tested on: cardiomyocytes derived from hiPSCs from a LQTS3 patient; details: for LQT-Fold (prolongation): cell in fold shortening column marked (prolongation)
[6] = biological target: Nav1.5 sodium channel transfected into HEK293 cells (Homo sapiens, UniProt Q14524); assay: in vitro
Experimental: as §1

[7] = read-out: LQT-IC50 (uM)-Shortening
[8] = ratio peak/late IC50, Example 2
[9] = WT cardiomyocytes, AP prolongation
[10] = read-out: LQT-EC50 (μM) Shortening, LQT-3 cardiomyocytes, AP shortening
[11] = LQT-3 cardiomyocytes, cessation of beating
[12] = read-out: LQT-IC50 (prolongation)
[13] = read-out: LQT-EC50 (μM) Shortening, pyridyl derivatives

| Cessation of Beating ([4]; normal hiPSC cardiomyocytes) | LQT-Cessation Dose ([5]; LQT3 cardiomyocytes) | WT-EAD Dose ([4]; normal hiPSC cardiomyocytes) [µM] | Compound | IC50 [2, 7] [µM] | WT-Fold Prolongation ([4]; normal hiPSC cardiomyocytes) | WT-Prolongation Dose ([4]; normal hiPSC cardiomyocytes) | LQT-Fold Shortening ([5]; LQT3 cardiomyocytes) | further results |
| --- | --- | --- | --- | --- | --- | --- | --- | --- |
| – | – | – | Cc1cccc(C)c1OCC(C)N (racemic) [racemic Mexiletine] | 1.83 | – | – | – | IC50 ([1]; Example 2): 54 µM; IC50 [3]: 183 µM |
| None | 22 µM | – | Cc1cccnc1OCC(C)N (stereo not shown) [Compound 100, 1-(-3-Methyl-pyridin-2-yloxy)propan-2-amine] | – | None | None | 1.13 | IC50 [3]: 252 µM |
| – | None | 200 | Cc1cccc(C)c1OC[C@H](C)N [Compound 2b, (S)-(+)-Mexiletine Hydrochloride, reference compound] | 0.8 | – | – | – | IC50 [1]: 84 µM; IC50 [3]: 129 µM |
| – | – | – | Cc1cc(C)cc(OCC(N)C2CC2)c1.Cl (stereo not shown) [Compound 91] | – | – | – | – | IC50 [1]: 45.8 µM; IC50 ([1]; Example 2): 45.8 µM; DKr/NaL ([1]; ratio hERG IC50/late Na IC50): 4.6; DNaP/Kr ([1]; ratio peak Na IC50/hERG IC50): 1.7; DKr/NaL ([1]; ratio, Example 2): 4.6; DNaP/Kr ([1]; ratio, Example 2): 1.7; IC50 [6]: 10 µM; DNap/NaL ([6]; ratio peak IC50/late IC50): 7.7; DNap/NaL [6, 8]: 7.68; IC50 [3]: 76.8 µM |
| None | None | 66 | COCCNC(C)COc1c(C)cccc1C (stereo not shown) [Compound 40, 1-(2,6-dimethylphenoxy)-N-methoxy-ethyl-2-amine] | 2.31 | 4.366 | 32 µM | 1.267 | LQT-Shortening Dose ([5]; LQT3 cardiomyocytes): 7.4 µM |
| – | – | – | Cc1cccc(C)c1OCC(N)c1ccc2ccccc2c1 (stereo not shown) [Compound 131] | – | – | – | – | WT-EC50 (μM) Prolongation [4, 9]: Does Not Prolong AP; EC50 [2, 10]: 4.73 µM; LQT-Fold Shortening ([5]; LQT-3 cardiomyocytes): 1.309; LQT-Cessation Dose [5, 11]: 133 µM |
| – | – | – | Cc1cccc(C)c1OC[C@@H](N)C1CC1.Cl [Compound 60] | 0.11 | 2.805 | – | 1.22 | Cessation of Beating ([4]; human, 5 min): 200 µM; WT-EAD Dose ([4]; human, 5 min): 66 µM; LQT-Cessation Dose ([5]; human, 5 min): 200 µM |
| – | – | – | COCCNC(COc1c(C)ccnc1C)c1ccccc1 (stereo not shown) [Compound 122] | – | – | – | – | WT-EC50 (μM) Prolongation [4, 9]: Does Not Prolong AP; EC50 [2, 10]: 46.6 µM; LQT-Fold Shortening ([5]; LQT-3 cardiomyocytes): 1.188 |
| 22 µM | 22 µM | – | CCCc1ccccc1OCC(N)c1ccccc1 (stereo not shown) [Compound 23, 1-phenyl-2-(2-propylphenoxy)ethanamine] | 0.78 | None | None | 1.32 | – |
| – | – | – | Cc1cc(C)cc(OCC(N)C2CCCCC2)c1.Cl (stereo not shown) [Compound 89] | – | – | – | – | IC50 [1]: 4.9 µM; IC50 ([1]; Example 2): 4.9 µM; DKr/NaL ([1]; ratio hERG IC50/late Na IC50): 3.1; DNaP/Kr ([1]; ratio peak Na IC50/hERG IC50): 5.0; DKr/NaL ([1]; ratio, Example 2): 3.1; DNaP/Kr ([1]; ratio, Example 2): 5.0; DNap/NaL ([6]; ratio peak IC50/late IC50): 15.2; DNap/NaL [6, 8]: 15.3; IC50 [3]: 24.3 µM |
| 133 µM | 133 µM | – | Cc1cccnc1OCC(=NOCc1ccccc1)c1ccccc1 [Compound 19] | 1.38 | None | None | 1.406 | WT-Cessation Dose ([4]; pyridyl derivatives): 133 µM; WT-EC50 (μM) Prolongation ([4]; pyridyl derivatives): Does Not Prolong AP; EC50 [2, 13]: 1.38 µM; LQT-Fold Shortening ([5]; pyridyl derivatives): 1.406; LQT-Shortening Dose ([5]; pyridyl derivatives): 66 µM |
| – | – | – | Cc1ccccc1OCC(N)c1ccc2ccccc2c1 (stereo not shown) [Compound 133] | – | – | – | – | WT-EC50 (μM) Prolongation [4, 9]: Does Not Prolong AP; EC50 [2, 10]: 8.83 µM; LQT-Fold Shortening ([5]; LQT-3 cardiomyocytes): 1.302; LQT-Cessation Dose [5, 11]: 133 µM |
| – | – | – | Cc1ccc(OCC(N)c2ccccc2)cn1 (stereo not shown) [Compound 114] | – | – | – | – | WT-EC50 (μM) Prolongation [4, 9]: Does Not Prolong AP; WT-Cessation Dose (μM) ([4]; WT cardiomyocytes, cessation of beating): No cessation of beating; EC50 [2, 10]: 67.5 µM; LQT-Fold Shortening ([5]; LQT-3 cardiomyocytes): 1.233 |
| None | None | 133 | Cc1cccc(Cl)c1OC[C@@H](C)N [Compound 56] | 0.04 | 3.925 | – | 1.189 | – |
| None | None | – | CCc1ccccc1OCC(C)N (stereo not shown) [Compound 50, 1-(2-Ethylphenoxy)propan-2-amine] | 6.01 | 1.392 | – | 1.12 | – |
| – | None | 200 | Cc1cccc(C)c1OCC(C)N (racemic) [Compound 1, Mexiletine, reference compound] | 1.83 | – | – | – | IC50 [1]: 54 µM; IC50 [3]: 183 µM |
| 133 µM | 200 µM | – | CCCCNC(COc1cccc(C)c1C)c1ccccc1 (stereo not shown) [Compound 30, 2-(2,3-dimethylphenoxy)-N-butyl-1-phenylethanamine] | 20.2 | None | None | 1.423 | – |
| 133 µM | 66 µM | – | Cc1cccc(OCC(O)c2ccccc2)c1C (stereo not shown) [Compound 32, 2-(2,3-dimethylphenoxy)-1-phenylethanol] | 7.53 | None | None | 1.355 | – |
| – | – | – | NC(COc1ccc2ccccc2c1)c1ccccc1 (stereo not shown) [Compound 130] | – | – | – | – | WT-EC50 (μM) Prolongation [4, 9]: Does Not Prolong AP; EC50 [2, 10]: 8.7 µM; LQT-Fold Shortening ([5]; LQT-3 cardiomyocytes): 1.459; LQT-Cessation Dose [5, 11]: 133 µM |
| 66 µM | 22 µM | – | CCc1ccccc1OCC(N)c1ccccc1 (stereo not shown) [Compound 24] | 0.38 | None | None | 1.979 | – |
| – | – | – | Cc1ncccc1OCC(N)c1ccccc1 (stereo not shown) [Compound 111] | – | – | – | – | WT-EC50 (μM) Prolongation [4, 9]: Does Not Prolong AP; EC50 [2, 10]: 8.57 µM; EC50 [2, 13]: ~8 µM; LQT-Fold Shortening ([5]; LQT-3 cardiomyocytes): 1.426; LQT-Shortening Dose (μM) ([5]; LQT-3 cardiomyocytes): Does Not Shorten |
| – | None | 200 | Cc1cccc(C)c1OC[C@@H](C)N [Compound 2a, (R)-(−)-Mexiletine Hydrochloride, reference compound] | 0.96 | – | – | – | IC50 [1]: 54 µM; IC50 [3]: 128 µM |
| None | None | 200 | Cc1cccc(Cl)c1OC[C@H](C)N [Compound 57, (S)-1-(2-chloro-6-methylphenoxy)propan-2-amine hydrochloride] | 0.19 | 3.615 | – | 1.14 | – |

| Compound | Cessation of Beating ([4]; normal hiPSC cardiomyocytes) | LQT-Cessation Dose ([5]; LQT3 cardiomyocytes) | WT-EAD Dose ([4]; normal hiPSC cardiomyocytes) [µM] | IC50 [2, 7] [µM] | WT-Fold Prolongation ([4]; normal hiPSC cardiomyocytes) | WT-Prolongation Dose ([4]; normal hiPSC cardiomyocytes) | LQT-Fold Shortening ([5]; LQT3 cardiomyocytes) | further results |
| --- | --- | --- | --- | --- | --- | --- | --- | --- |
| Cl.NC(COc1cccc(C(F)(F)F)c1)c1ccccc1 (stereo not shown) [Compound 81, 1-phenyl-2-(3-(trifluoromethyl)phenoxy)ethan-1-amine] | 66 µM | 66 µM | – | 4.07 | None | None | 1.539 | – |
| CC(N)COC1CCCCC1.Cl (stereo not shown) [Compound 87] | None | None | – | 34.8 | None | None | 1.611 | – |
| C[C@H](N)COc1ccccc1.Cl [Compound 72] | None | None | 133 | – | 2.93 | – | – | IC50 [2, 12]: 129 µM; LQT-Fold (prolongation) [5]: 1.133 (prolongation) |
| Cc1cc(C)cc(OC[C@H](N)C2CC2)c1.Cl [Compound 63] | None | 200 µM | 66 | 7.5 | 1.577 | – | 1.11 | – |
| C[C@@H](N)COc1ccccc1.Cl [Compound 71, (R)-1-phenoxypropan-2-amine hydrochloride] | None | None | 200 | – | 1.997 | – | – | IC50 [2, 12]: 194 µM; LQT-Fold (prolongation) [5]: 1.214 (prolongation) |
| Cc1cc(C)cc(OC[C@@H](N)C2CC2)c1.Cl [Compound 62] | 200 µM | 200 µM | 66 | 1.03 | 1.585 | – | 1.19 | – |
| Cc1ccc(OCC(N)C2CC2)c(C)c1.Cl (stereo not shown) [Compound 65] | 200 µM | 200 µM | 66 | 1.36 | 2.12 | – | 1.119 | – |
